The values below come from publication PMC7993393, “8-Mercaptoguanine-based inhibitors of Mycobacterium tuberculosis dihydroneopterin aldolase: synthesis, in vitro inhibition and docking studies” (Journal of Enzyme Inhibition and Medicinal Chemistry, 2021).

In data set [1] the target is T1, MtFolB (Mycobacterium tuberculosis, UniProt P9WNC5).
T1 construct: made in house
Kind of data set: MtFolB aldolase activity inhibition, continuous fluorescence assay (IC50). The data set is classed as biochemical.

The target of data set [2] is 6-hydroxymethyl-7,8-dihydropterin pyrophosphokinase from S. aureus (SaHPPK). Set-up: method as in PMID 22276115. Particulars: read-out: IC50 against SaHPPK; cited from earlier work.
The target in data set [3] is T1, MtFolB. Kind of data set: Mode of inhibition and inhibition constants on MtFolB aldolase activity (Lineweaver-Burk). The format is biochemical. Particulars: towards DHNP; for Inhibition mode: Lineweaver-Burk plots; for Ki: enzyme-inhibitor complex, read-out: Kis; for Ki / Kii: 300 nM MtFolB; for Kii: enzyme-substrate-inhibitor complex.
The test system of the next data set is SaFolB. Set-up: method as in PMID 15027862. Particulars: read-out: IC50 against SaFolB; cited from earlier work.

Molecules are shown by their SMILES.

T1 sequence (P9WNC5 whole entry): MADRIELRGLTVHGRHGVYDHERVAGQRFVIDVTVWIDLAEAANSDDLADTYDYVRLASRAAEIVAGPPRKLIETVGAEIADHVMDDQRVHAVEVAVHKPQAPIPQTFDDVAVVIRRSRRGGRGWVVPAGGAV

In the case of `Nc1nc2nc(S)[nH]c2c(=O)[nH]1` [8-MG (1), 8-mercaptoguanine], the half-maximal inhibitory concentration (IC50) was 300 nM against MtFolB [1], 41 µM in data set [2] and 1000 nM in the data set on SaFolB. In addition, the Inhibition mode entry at MtFolB [3] is “Non-competitive”. Besides, the Ki at MtFolB [3] worked out at 300 ± 100 nM. The compound also yielded a Kii on MtFolB [3] of 0.6 ± 0.1 µM.
As for `CCCc1ccc(NC(=O)CSc2nc3c(=O)[nH]c(N)nc3[nH]2)cc1` [Compound 4g, 2-((2-Amino-6-oxo-6,9-dihydro-1H-purin-8-yl)thio)-N-(4-propylphenyl)acetamide], the concentration for half-maximal inhibition (IC50) on MtFolB [1] is 900 nM.
`Nc1nc2[nH]c(SCc3ccc4ccccc4c3)nc2c(=O)[nH]1` [Compound 2b, 2-Amino-8-((naphthalen-2-ylmethyl)thio)-1,9-dihydro-6H-purin-6-one]: the melting point fell in the range of 286 to 287 °C. Also, the half-inhibitory concentration (IC50) on MtFolB [1] stood at 1300 nM. Besides, the “Improvement of activity (fold)” value at MtFolB [1] (IC50 compared to benzyl derivative 2a) is given as “more than 5 fold”.
Regarding `Nc1nc2[nH]c(SCc3ccc(F)cc3)nc2c(=O)[nH]1` [Compound 2d, 2-Amino-8-((4-fluorobenzyl)thio)-1,9-dihydro-6H-purin-6-one], the melting point was in the range of 299 to 300 °C. At MtFolB [1], this compound yielded a 50% inhibitory concentration (IC50) of 8000 nM.
Take `Nc1nc2[nH]c(SCC(=O)Nc3ccc(F)cc3)nc2c(=O)[nH]1` [Compound 4d, 2-((2-Amino-6-oxo-6,9-dihydro-1H-purin-8-yl)thio)-N-(4-fluorophenyl)acetamide]: the 50% inhibitory concentration (IC50) against MtFolB [1] amounted to 2000 nM.
Regarding `Nc1nc2[nH]c(SCc3ccccc3)nc2c(=O)[nH]1` [Compound 2a, 2-Amino-8-(benzylthio)-1,9-dihydro-6H-purin-6-one], on MtFolB [1], the 50% inhibitory concentration (IC50) stood at 7100 nM.
On the same count and under the same terms, the same measure for `Nc1nc2[nH]c(SCc3ccccc3Cl)nc2c(=O)[nH]1` [Compound 2e, 2-Amino-8-((2-chlorobenzyl)thio)-1,9-dihydro-6H-purin-6-one]: 4200 nM.
Still for that read-out and setting: the same measure for `Nc1nc2[nH]c(SCC(=O)NCc3ccccc3)nc2c(=O)[nH]1` [Compound 4c, 2-((2-Amino-6-oxo-6,9-dihydro-1H-purin-8-yl)thio)-N-benzylacetamide]: 12300 nM; for `Nc1nc2[nH]c(SCC(=O)Nc3ccc(Cl)cc3)nc2c(=O)[nH]1` [Compound 4e, 2-((2-Amino-6-oxo-6,9-dihydro-1H-purin-8-yl)thio)-N-(4-chlorophenyl)acetamide]: 800 nM.
`Nc1nc2[nH]c(SCc3ccc(Cl)cc3)nc2c(=O)[nH]1` [Compound 2f, 2-Amino-8-((4-chlorobenzyl)thio)-1,9-dihydro-6H-purin-6-one]: the melting point fell in the range of 291 to 294 °C. Half-maximal inhibition at MtFolB [1] (IC50) was put at 2200 nM.
The matching figures for `Nc1nc2[nH]c(SCC(=O)Nc3ccc4ccccc4c3)nc2c(=O)[nH]1` [Compound 4b, 2-((2-Amino-6-oxo-6,9-dihydro-1H-purin-8-yl)thio)-N-(naphthalen-2-yl)acetamide]: 286 to 289 °C and 700 nM.
For the compound `Nc1nc2[nH]c(SCC(=O)c3ccccc3)nc2c(=O)[nH]1` [Compound 3a, 2-Amino-8-((2-oxo-2-phenylethyl)thio)-1,9-dihydro-6H-purin-6-one], the melting point was > 310 °C. The same compound returned an IC50 against MtFolB [1] of 900 nM.
On to `Nc1nc2[nH]c(SCc3ccc(Br)cc3)nc2c(=O)[nH]1` [Compound 2h, 2-Amino-8-((4-bromobenzyl)thio)-1,9-dihydro-6H-purin-6-one], for which it took 3000 nM to reach half-maximal inhibition against MtFolB [1] (IC50).
For `Nc1nc2[nH]c(SCC(=O)Nc3ccccc3)nc2c(=O)[nH]1` [Compound 4a, 2-((2-Amino-6-oxo-6,9-dihydro-1H-purin-8-yl)thio)-N-phenylacetamide], on MtFolB [1], half-maximal inhibition (IC50) was put at 2200 nM.
As for `Nc1nc2[nH]c(SCC(=O)Nc3ccc(Br)cc3)nc2c(=O)[nH]1` [Compound 4f, 2-((2-Amino-6-oxo-6,9-dihydro-1H-purin-8-yl)thio)-N-(4-bromophenyl)acetamide], the melting point is > 310 °C. This compound displayed a half-maximal inhibitory concentration (IC50) at MtFolB [1] of 500 nM. For the same compound, at MtFolB [3], the Inhibition mode result was “Competitive” and the Ki is 100 ± 30 nM.
In turn, `COc1ccccc1C(=O)CSc1nc2nc(N)[nH]c(=O)c2[nH]1` [Compound 3c, 2-Amino-8-((2–(2-methoxyphenyl)-2-oxoethyl)thio)-1,9-dihydro-6H-purin-6-one] registered a half-inhibitory concentration (IC50) at MtFolB [1] of 1300 nM.
For the compound `Nc1nc2[nH]c(SCc3ccccc3F)nc2c(=O)[nH]1` [Compound 2c, 2-Amino-8-((2-fluorobenzyl)thio)-1,9-dihydro-6H-purin-6-one], the melting point is 289 to 290 °C. On MtFolB [1], this compound gave an IC50 of 8000 nM.
In the case of `Nc1nc2[nH]c(SCC(=O)c3ccc(Cl)cc3)nc2c(=O)[nH]1` [Compound 3b, 2-Amino-8-((2–(4-chlorophenyl)-2-oxoethyl)thio)-1,9-dihydro-6H-purin-6-one], the melting point lay within 300 to 316 °C. The same compound displayed a 50% inhibitory concentration (IC50) against MtFolB [1] of 300 nM. On MtFolB [3], the Inhibition mode entry was “Non-competitive”, the Ki is 400 ± 100 nM and the Kii stood at 0.9 ± 0.2 µM.
As for `CCCCCCCc1ccc(NC(=O)CSc2nc3c(=O)[nH]c(N)nc3[nH]2)cc1` [Compound 4h, 2-((2-Amino-6-oxo-6,9-dihydro-1H-purin-8-yl)thio)-N-(4-heptylphenyl)acetamide], the melting point was > 310 °C. The compound also had an IC50 at MtFolB [1] of 400 nM. Besides, on MtFolB [3], the Inhibition mode entry is reported as “Non-competitive”, the Ki is 500 ± 100 nM and the Kii was found to be 1.2 ± 0.2 µM.
In turn, `Nc1nc2[nH]c(SCc3ccc(Cl)c(Cl)c3)nc2c(=O)[nH]1` [Compound 2g] yielded a melting point of 290 to 291 °C. The IC50 on MtFolB [1] was 5500 nM. In addition, the IC50 fold higher on MtFolB [1] (IC50 compared to monosubstituted analog 2f) is 2.5 fold.
